Assay [1] concerns the target Human Cot (Homo sapiens (Human), UniProt P41279). In words: High Throughput Cot Biochemical Assay. As to conditions: Cot HTRF (TR-FRET) biochemical assay. Background: In TR-FRET formats the signal depends on donor and acceptor labels being close together.
Assay [2] concerns TNFα. Nature of the assay: Cot Monocyte TNFα Cell Based Assay.
[3] abbreviates: Homo sapiens, Monocyte, read-out: EC50 TNF, LPS-stimulated human monocytes, TNFα.

Molecules are shown by their SMILES. pEC50, pIC50: −log10 of the molar value. Read-outs that look alike come from different tables or passages of the source.

Sequence of Human Cot (P41279 30-397): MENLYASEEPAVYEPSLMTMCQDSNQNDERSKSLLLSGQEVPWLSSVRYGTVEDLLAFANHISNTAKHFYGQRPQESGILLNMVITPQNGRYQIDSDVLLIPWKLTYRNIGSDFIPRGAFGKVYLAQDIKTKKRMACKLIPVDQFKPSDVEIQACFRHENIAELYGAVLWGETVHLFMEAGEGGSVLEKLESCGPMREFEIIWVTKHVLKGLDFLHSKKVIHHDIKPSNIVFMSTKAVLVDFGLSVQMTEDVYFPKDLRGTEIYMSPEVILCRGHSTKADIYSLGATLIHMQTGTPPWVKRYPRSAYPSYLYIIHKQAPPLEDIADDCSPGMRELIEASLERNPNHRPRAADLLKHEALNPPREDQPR

In general, pIC50 refers to the negative decadic logarithm of the IC50, by convention in mol/L. In general, pEC50 refers to −log10 of the EC50, conventionally taken in molar units. With `CC(C)(C)CNc1c(C#N)cnc2c(Cl)cc(N[C@@H](c3cccnc3)c3cn(C4(C(F)F)CC4)nn3)cc12` [Example 506, (S)-8-chloro-6-(((1-(1-(difluoromethyl)-cyclopropyl)-1H-1,2,3-triazol-4-yl)(pyridin-3-yl)methyl)amino)-4-(neopentylamino)quinoline-3-carbonitrile], the pIC50 in assay [1] (IC50 HTRF) is 8.10. The pEC50 in assay [2] (setting [3]) was 6.28.

Turning to `CC(C)(C)CNc1c(C#N)cnc2c(Cl)cc(N[C@H](c3cn(C4(C(F)F)CC4)nn3)c3cccc4ncccc34)cc12` [Example 508, (S)-8-chloro-6-(((1-(1-(difluoromethyl)-cyclopropyl)-1H-1,2,3-triazol-4-yl)(quinolin-5-yl)methyl)amino)-4-(neopentylamino)-quinoline-3-carbonitrile], the pIC50 in assay [1] (IC50 HTRF) is 8.40. Besides, the pEC50 in assay [2] (setting [3]) is 7.02.

In turn, `Cc1nc(F)ccc1[C@@H](Nc1cc(Cl)c2ncc(C#N)c(NCC(C)(C)C)c2c1)c1cn(C2(C(F)F)CC2)nn1` [Example 509, (R)-8-chloro-6-(((1-(1-(difluoromethyl)-cyclopropyl)-1H-1,2,3-triazol-4-yl)(6-fluoro-2-methylpyridin-3-yl)methyl)amino)-4-(neopentylamino)quinoline-3-carbonitrile] had a pIC50 in assay [1] (IC50 HTRF) of 6.57. Moreover, the pEC50 in assay [2] (setting [3]) is 6.00.

`Cc1nc(F)ccc1[C@H](Nc1cc(Cl)c2ncc(C#N)c(NC3CCOC3(C)C)c2c1)c1cn(C2(C(F)F)CC2)nn1` (stereo partly drawn) [Example 511, 8-chloro-6-(((S)-(1-(1-(difluoromethyl)-cyclopropyl)-1H-1,2,3-triazol-4-yl)(6-fluoro-2-methylpyridin-3-yl)methyl)amino)-4-((2,2-dimethyltetrahydrofuran-3-yl)amino)-quinoline-3-carbonitrile] showed a pIC50 in assay [1] (IC50 HTRF) of 8.22. Further, the pEC50 in assay [2] (setting [3]) is 6.88.

`Cc1nc(F)ccc1[C@H](Nc1cc(Cl)c2ncc(C#N)c(NCC(C)(C)CC#N)c2c1)c1cn(C2(C(F)F)CC2)nn1` [Example 512, (S)-8-chloro-4-((3-cyano-2,2-dimethyl-propyl)amino)-6-(((1-(1-(difluoromethyl)-cyclopropyl)-1H-1,2,3-triazol-4-yl)(6-fluoro-2-methylpyridin-3-yl)methyl)amino)quinoline-3-carbonitrile] had a pIC50 in assay [1] (IC50 HTRF) of 8.00. The pEC50 in assay [2] (setting [3]) was 6.38.

In assay [1] (IC50 HTRF), `Cc1nc(F)ccc1[C@H](Nc1cc(F)c2ncc(C#N)c(NCC(C)(C)C)c2c1)c1cn(C2(C(F)(F)F)CC2)nn1` [Example 513, (S)-8-fluoro-6-(((6-fluoro-2-methylpyridin-3-yl)(1-(1-(trifluoromethyl)cyclopropyl)-1H-1,2,3-triazol-4-yl)methyl)amino)-4-(neopentylamino)quinoline-3-carbonitrile] gave a pIC50 of 8.05. Further, the pEC50 in assay [2] (setting [3]) was 6.81.

`Cc1nc(F)ccc1[C@H](Nc1cc(Cl)c2ncc(C#N)c(N[C@@H]3CCOC3(C)C)c2c1)c1cn(C2(C(F)F)CC2)nn1` [Example 515, 8-chloro-6-(((S)-(1-(1-(difluoromethyl)-cyclopropyl)-1H-1,2,3-triazol-4-yl)(6-fluoro-2-methylpyridin-3-yl)methyl)amino)-4-(((R)-2,2-dimethyltetrahydro-furan-3-yl)amino)quinoline-3-carbonitrile]: the pIC50 in assay [1] (IC50 HTRF) is 6.70. In addition, in assay [2] (setting [3]), the pEC50 is 6.00.

`Cc1nc(F)ccc1[C@H](Nc1cc(Cl)c2ncc(C#N)c(N[C@H]3CCOC3(C)C)c2c1)c1cn(C2(C(F)F)CC2)nn1` [Example 516, 8-chloro-6-(((S)-(1-(1-(difluoromethyl)-cyclopropyl)-1H-1,2,3-triazol-4-yl)(6-fluoro-2-methylpyridin-3-yl)methyl)amino)-4-(((S)-2,2-dimethyltetrahydrofuran-3-yl)amino)quinoline-3-carbonitrile] showed a pIC50 in assay [1] (IC50 HTRF) of 8.70. Also, in assay [2] (setting [3]), the pEC50 was 7.47.

In assay [1] (IC50 HTRF), `Cc1nc(F)ccc1[C@H](Nc1cc(Cl)c2ncc(C#N)c(NCC(C)(C)C)c2c1)c1cn(C2(C(=O)O)CC2)nn1` [Example 517, (S)-1-(4-(((8-chloro-3-cyano-4-(neopentylamino)quinolin-6-yl)amino)(6-fluoro-2-methylpyridin-3-yl)methyl)-1H-1,2,3-triazol-1-yl)cyclopropane-1-carboxylic acid] had a pIC50 of 8.52. For the same compound, the pEC50 in assay [2] (setting [3]) is 6.00.

Take `[2H][C@](Nc1cc(Cl)c2ncc(C#N)c(NCC(C)(C)C)c2c1)(c1ccc(F)nc1)c1cn(C2(C(F)F)CC2)nn1` [Example 518, (S)-8-chloro-6-(((1-(1-(difluoromethyl)-cyclopropyl)-1H-1,2,3-triazol-4-yl)(6-fluoropyridin-3-yl)methyl-d)amino)-4-(neopentylamino)quinoline-3-carbonitrile]: in assay [1] (IC50 HTRF), the negative-log IC50 (pIC50) was 8.15. The pEC50 in assay [2] (setting [3]) was 6.68.

Regarding `Cn1cnc2c([C@H](Nc3cc(Cl)c4ncc(C#N)c(NCC(C)(C)C)c4c3)c3cn(C4(C(F)(F)F)CC4)nn3)cccc21` [Example 520, (S)-8-chloro-6-(((1-methyl-1H-benzo[d]imidazol-4-yl)(1-(1-(trifluoromethyl)cyclopropyl)-1H-1,2,3-triazol-4-yl)methyl)amino)-4-(neopentylamino)quinoline-3-carbonitrile], in assay [1] (IC50 HTRF), the pIC50 was 6.91. Moreover, the pEC50 in assay [2] (setting [3]) was 6.03.

In assay [1] (IC50 HTRF), `Cn1ncc2cccc([C@H](Nc3cc(Cl)c4ncc(C#N)c(NCC(C)(C)C)c4c3)c3cn(C4(C(F)(F)F)CC4)nn3)c21` [Example 521, (S)-8-chloro-6-(((1-methyl-1H-indazol-7-yl)(1-(1-(trifluoromethyl)-cyclopropyl)-1H-1,2,3-triazol-4-yl)methyl)amino)-4-(neopentylamino)-quinoline-3-carbonitrile] had a pIC50 of 7.57. Also, the pEC50 in assay [2] (setting [3]) is 6.59.

In turn, `Cn1nnc2cccc([C@H](Nc3cc(Cl)c4ncc(C#N)c(NCC(C)(C)C)c4c3)c3cn(C4(C(F)(F)F)CC4)nn3)c21` [Example 522, (S)-8-chloro-6-(((1-methyl-1H-benzo[d] [1,2,3]triazol-7-yl)(1-(1-(trifluoromethyl)-cyclopropyl)-1H-1,2,3-triazol-4-yl)methyl)amino)-4-(neopentylamino)-quinoline-3-carbonitrile] showed a pIC50 in assay [1] (IC50 HTRF) of 8.30. In assay [2] (setting [3]), the pEC50 was 7.28.

For `Cn1cnc2cccc([C@H](Nc3cc(C#N)c4ncc(C#N)c(NCC(C)(C)C)c4c3)c3cn(C4(C(F)F)CC4)nn3)c21` [Example 523], the pIC50 in assay [1] (read-out: IC50 HTRF) was 8.70. Besides, the pEC50 in assay [2] (read-out: EC50 TNF, LPS-stimulated human monocytes, TNFα) is 7.20.

`Cn1ncc2c([C@H](Nc3cc(Cl)c4ncc(C#N)c(NCC(C)(C)C)c4c3)c3cn(C4(C)CC4)nn3)cccc21` [Example 525, (S)-8-chloro-6-(((1-methyl-1H-indazol-4-yl)(1-(1-methylcyclopropyl)-1H-1,2,3-triazol-4-yl)methyl)amino)-4-(neopentylamino)quinoline-3-carbonitrile] showed a pIC50 in assay [1] (IC50 HTRF) of 8.40. In assay [2] (setting [3]), the pEC50 is 6.79.

With `Cn1nnc2cccc([C@H](Nc3cc(C#N)c4ncc(C#N)c(NCC(C)(C)C)c4c3)c3cn(C4(C(F)(F)F)CC4)nn3)c21` [Example 527, (S)-6-(((1-methyl-1H-benzo[d][1,2,3]triazol-7-yl)(1-(1-(trifluoromethyl)cyclopropyl)-1H-1,2,3-triazol-4-yl)methyl)amino)-4-(neopentylamino)quinoline-3,8-dicarbonitrile], the pIC50 in assay [1] (IC50 HTRF) was 8.52. Also, the pEC50 in assay [2] (setting [3]) is 7.11.
